What was measured:
Human a Thrombin = Human a Thrombin (Homo sapiens, UniProt P00734); assay: Binding of PMSF to a freely mounted thrombin crystal by dripping on microdrops, X-ray crystallographic examination; conditions: 100 mM PMSF in isopropyl alcohol dripped on thrombin crystal; active center around Ser195; FIG. 4
Description: A thrombin crystal was mounted on the free mounting system by means of a loop at a previously determined initial humidity of 93%. Under a microscope, surplus reservoir buffer was cautiously removed from the loop by means of a strip of filter paper. The stability and the consistency of the size of the crystal, respectively, were monitored by means of the video system.
Herein, a highly concentrated PMSF solution in an organic solvent was used.
Subsequently, the crystal was bombarded with individual drops (single shot mode) of the solution. The total volume dripped on approximately corresponded to the volume of the crystal, i.e. about 300 pl. […] Herein, the projection of the surface of the crystal was monitored after each dripping-on and it was waited until the surface remained uniform again before the next drop was applied. The individual parameters of the experiment can be seen in Table 1.
After completion of dripping-on, the crystal was moistened with PFPE oil (perfluoropolyether) and shock-frozen in liquid nitrogen. The X-ray crystallographic data record was recorded on a rotating copper anode. Data processing was conducted by means of the programs XDS and XSCALE, refinement and manual model construction was conducted by means of the programs CNX and O. The statistics of data collection, processing, and refinement are given in Table 2.

human α-thrombin = human α-thrombin (Homo sapiens, UniProt P00734); conditions: stated in brackets without method; inhibitor used with human α-thrombin; cited from earlier work
[1] = cited from earlier work

| SMILES | binding mode seen in the experimentally determined electron density (Human a Thrombin) | Ki (human α-thrombin) [µM] | stability in an aqueous system [1] |
| --- | --- | --- | --- |
| O=S(=O)(F)Cc1ccccc1 [PMSF, Phenylmethylsulfonyl Fluoride] | covalent bond of the PMSF at Ser195 |  |  |
| Cl.NCCc1ccc(S(=O)(=O)F)cc1 [Pefabloc SC, 4-(2-aminoethyl)-benzenesulfonyl-fluoride-hydrochloride] |  | 6.5 | high stability in an aqueous system |

— patent US20070160501A1, “Device and method for treating a crystal by applying microdrops thereto” (PROTEROS BIOSTRUCTURES GMBH, priority 2003, published 2007)
